Results on 42 compounds are retold here after ChEMBL document CHEMBL1122265, “Nitrogen bridgehead compounds. 33. New antiallergic 4H-pyrido[1,2-a]pyrimidin-4-ones. 2” (1983).

Calls of active or inactive are those of the source. The rule behind the calls is not given here.

Experiment [1] has as its system Rattus norvegicus. The experiment is described as follows: Antiallergic activity in rat reaginic passive cutaneous anaphylaxis (PCA) test upon peroral administration. The experiment is classed as functional. The conditions noted are these: po, read-out: ID50 (the source's name).
For experiment [2], the system named is Rattus norvegicus. Kind of experiment: Antiallergic activity in rat reaginic passive cutaneous anaphylaxis (PCA) test upon intravenous administration; Insoluble. The experiment is classed as functional, organism-based.
Experiment [3] concerns Rattus norvegicus. Kind of experiment: Antiallergic activity in rat reaginic passive cutaneous anaphylaxis (PCA) test upon intravenous administration. In kind it is functional. Conditions: read-out: ID50 (the source's name).
For experiment [4], the system named is Rattus norvegicus. Kind of experiment: Antiallergic activity in rat reaginic passive cutaneous anaphylaxis (PCA) test upon peroral administration; NA means inactive. The experiment is classed as functional, organism-based.

In the case of `CC1CCC(=NNc2cc(Cl)ccc2O)c2ncc(C(=O)O)c(=O)n21` (centres undefined), the ED50 with Rattus norvegicus [1] is greater than 100 µmol/kg. In the experiment with Rattus norvegicus [2], the ID50 result is “Insoluble”.
In the case of `CC1CCC(=NNc2ccc(Cl)cc2Cl)c2ncc(C(=O)O)c(=O)n21` (centres undefined), the ED50 in the experiment with Rattus norvegicus [1] was greater than 100 µmol/kg. In the experiment on Rattus norvegicus [2], the ID50 entry is “Insoluble”.
As for `CC1CCC(=NNc2ccccc2C(=O)O)c2ncc(C(=O)NO)c(=O)n21` (centres undefined), the ED50 in the experiment on Rattus norvegicus [3] and in the experiment on Rattus norvegicus [1] was greater than 100 µmol/kg in each case.
On to `CC1CCC(=NNc2cc(C(F)(F)F)cc(C(F)(F)F)c2)c2ncc(C(=O)O)c(=O)n21` (centres undefined), for which, in the experiment with Rattus norvegicus [1], the ED50 was greater than 100 µmol/kg. For the same compound, the ID50 result in the experiment on Rattus norvegicus [2] is given as “Insoluble”.
Regarding `CC1CCC(=NNc2cc([N+](=O)[O-])cc([N+](=O)[O-])c2)c2ncc(C(=O)O)c(=O)n21` (centres undefined), the figures for the ED50 in the experiment on Rattus norvegicus [3] and with Rattus norvegicus [1] were 3.4 µmol/kg and greater than 100 µmol/kg, respectively.
On to `Cc1cc(NN=C2CCC(C)n3c2ncc(C(=O)O)c3=O)ccc1Br` (centres undefined), for which, in the experiment with Rattus norvegicus [1], the ED50 was greater than 100 µmol/kg. Moreover, the ID50 result with Rattus norvegicus [2] is recorded as “Insoluble”.
`CC1CCC(=NNc2nn[nH]n2)c2ncc(C(=O)O)c(=O)n21` (centres undefined): the ED50 with Rattus norvegicus [3] and with Rattus norvegicus [1] was greater than 100 µmol/kg throughout.
Regarding `Cc1cc(C)c(NN=C2CCC(C)n3c2ncc(C(=O)O)c3=O)cc1C` (centres undefined), in the experiment with Rattus norvegicus [1], the ED50 was 320 µmol/kg. The ID50 entry with Rattus norvegicus [2] is “Insoluble”.
In the case of `CC1CCC(=NNc2ccccc2)c2ncc(C(=O)O)c(=O)n21` (centres undefined), the figures for the ED50 in the experiment with Rattus norvegicus [3] and with Rattus norvegicus [1] were 0.6 µmol/kg and 1.2 µmol/kg, respectively.
For the compound `CC1CCC(C)(N=Nc2ccccc2)c2ncc(C(=O)O)c(=O)n21` (centres undefined), the ED50 is 35 µmol/kg with Rattus norvegicus [3] and greater than 100 µmol/kg in the experiment with Rattus norvegicus [1].
The corresponding values for `CC1CCC(N=Nc2ccccc2C(=O)O)=C2N(C)C=C(C(=O)O)C(=O)N21` (centres undefined) are greater than 100 µmol/kg and greater than 100 µmol/kg.
With `CC1CCC(=NNc2c(Cl)cccc2Cl)c2ncc(C(=O)O)c(=O)n21` (centres undefined), the ED50 in the experiment on Rattus norvegicus [1] was greater than 100 µmol/kg. The ID50 result in the experiment on Rattus norvegicus [2] is “Insoluble”.
The corresponding values for `CCc1nc2n(c(=O)c1C(N)=O)C(C)CCC2=NNc1ccccc1` (centres undefined) are greater than 100 µmol/kg and “Insoluble”.
Consider `CC1CCC(=NNc2ccccc2)c2ncc(C(=O)NO)c(=O)n21` (centres undefined), for which the ED50 in the experiment with Rattus norvegicus [3] and with Rattus norvegicus [1] was greater than 100 µmol/kg in each case.
As for `CC1CCC(C)(N=Nc2ccccc2C(=O)O)c2ncc(C(=O)O)c(=O)n21` (centres undefined), the ED50 in the experiment with Rattus norvegicus [3] and with Rattus norvegicus [1] was greater than 100 µmol/kg in each case.
Turning to `CC1CCC(=NNc2cccnc2)c2ncc(C(=O)O)c(=O)n21` (centres undefined), the ED50 with Rattus norvegicus [3] is 0.54 µmol/kg; with Rattus norvegicus [1], greater than 320 µmol/kg.
Take `CC1CCC(=NN(C)c2ccccc2)c2ncc(C(=O)O)c(=O)n21` (centres undefined): the ED50 in the experiment with Rattus norvegicus [3] was 52.4 µmol/kg; with Rattus norvegicus [1], greater than 100 µmol/kg.
For `Cc1nc2n(c(=O)c1C(=O)O)C(C)CCC2=NNc1ccccc1` (centres undefined), in that order: greater than 100 µmol/kg and greater than 320 µmol/kg.
For the compound `Cc1cc(C)cc(NN=C2CCC(C)n3c2ncc(C(=O)O)c3=O)c1` (centres undefined), in the experiment on Rattus norvegicus [1], the ED50 is greater than 320 µmol/kg. Also, in the experiment with Rattus norvegicus [2], the ID50 result is given as “Insoluble”.
For `Cc1cc(C)c(NN=C2CCC(C)n3c2ncc(C(=O)O)c3=O)c(C)c1` (centres undefined), in that order: 320 µmol/kg and “Insoluble”.
`CCOC(=O)c1cnc2n(c1=O)C(C)CCC2=NNc1c(C)n(C)n(-c2ccccc2)c1=O` (centres undefined): the ED50 with Rattus norvegicus [3] was 95 µmol/kg; in the experiment with Rattus norvegicus [1], greater than 100 µmol/kg.
The corresponding values for `Cc1ccc(NN=C2CCC(C)n3c2ncc(C(=O)O)c3=O)cc1C` (centres undefined) are 6.5 µmol/kg and greater than 100 µmol/kg.
For the compound `Cc1cccc(C)c1NN=C1CCC(C)n2c1ncc(C(=O)O)c2=O` (centres undefined), in the experiment on Rattus norvegicus [1], the ED50 was 320 µmol/kg. The ID50 entry in the experiment with Rattus norvegicus [2] is “Insoluble”.
The corresponding values for `Cc1cccc(NN=C2CCC(C)n3c2ncc(C(=O)O)c3=O)c1C` (centres undefined) are greater than 100 µmol/kg and “Insoluble”.
On to `CC1CC/C(=N\N)c2ncc(C(=O)O)c(=O)n21` (centres undefined), for which the results for the ED50 with Rattus norvegicus [3] and in the experiment on Rattus norvegicus [1] were 42 µmol/kg and greater than 100 µmol/kg, respectively.
As to `CC1CCC(=NNc2ccc3c(c2)OCO3)c2ncc(C(=O)O)c(=O)n21` (centres undefined), the results for the ED50 in the experiment on Rattus norvegicus [3] and in the experiment on Rattus norvegicus [1] were 0.33 µmol/kg and greater than 100 µmol/kg, respectively.
`O=C(O)c1cc(=O)c2c(OCC(O)COc3cccc4oc(C(=O)O)cc(=O)c34)cccc2o1` [CROMOLYN SODIUM]: the ED50 with Rattus norvegicus [3] was found to be 1 µmol/kg. For the same compound, in the experiment on Rattus norvegicus [4], the ID50 entry was “inactive”.
Take `CC1CCC(=NNc2ccc3ccccc3c2)c2ncc(C(=O)O)c(=O)n21` (centres undefined): the ED50 with Rattus norvegicus [3] is 0.77 µmol/kg; with Rattus norvegicus [1], greater than 100 µmol/kg.
For `COc1cc(NN=C2CCC(C)n3c2ncc(C(=O)O)c3=O)cc(OC)c1` (centres undefined), in that order: 0.42 µmol/kg and 100 µmol/kg.
Turning to `COc1cc(OC)c(NN=C2CCC(C)n3c2ncc(C(=O)O)c3=O)cc1Cl` (centres undefined), the ED50 in the experiment with Rattus norvegicus [1] was greater than 100 µmol/kg. Besides, the ID50 entry in the experiment on Rattus norvegicus [2] was “Insoluble”.
Regarding `CC1CCC(=NNc2ccc(Cl)c(Cl)c2)c2ncc(C(=O)O)c(=O)n21` (centres undefined), the results for the ED50 in the experiment on Rattus norvegicus [3] and with Rattus norvegicus [1] were 0.89 µmol/kg and greater than 100 µmol/kg, respectively.
For `CC1CCC(=NNc2cc(Cl)cc(Cl)c2)c2ncc(C(=O)O)c(=O)n21` (centres undefined), in that order: 13.3 µmol/kg and greater than 100 µmol/kg.
Turning to `Cc1cccc(Cl)c1NN=C1CCC(C)n2c1ncc(C(=O)O)c2=O` (centres undefined), in the experiment on Rattus norvegicus [1], the ED50 is greater than 100 µmol/kg. Moreover, in the experiment with Rattus norvegicus [2], the ID50 result is reported as “Insoluble”.
In the case of `Cc1c(NN=C2CCC(C)n3c2ncc(C(=O)O)c3=O)c(=O)n(-c2ccccc2)n1C` (centres undefined), the ED50 with Rattus norvegicus [3] is 31 µmol/kg; with Rattus norvegicus [1] it was greater than 100 µmol/kg.
In the case of `CC1CCC(N=Nc2ccccc2)=C2N(C)C=C(C(=O)O)C(=O)N21` (centres undefined), the ED50 with Rattus norvegicus [1] is greater than 100 µmol/kg. For the same compound, the ID50 entry in the experiment on Rattus norvegicus [2] was “Insoluble”.
On to `CC1CCC(=NNc2ccccn2)c2ncc(C(=O)O)c(=O)n21` (centres undefined), for which the ED50 in the experiment on Rattus norvegicus [3] was 3.2 µmol/kg; with Rattus norvegicus [1] it was greater than 100 µmol/kg.
`CC1CCC(=NNc2ccccc2C(=O)O)c2ncc(C(=O)O)c(=O)n21` (centres undefined): the ED50 in the experiment with Rattus norvegicus [3] was 0.48 µmol/kg; with Rattus norvegicus [1], greater than 100 µmol/kg.
As to `CC1CCC(=NNc2ccc(Br)cc2Cl)c2ncc(C(=O)O)c(=O)n21` (centres undefined), in the experiment with Rattus norvegicus [1], the ED50 was greater than 100 µmol/kg. Also, in the experiment on Rattus norvegicus [2], the ID50 entry was “Insoluble”.
For `CC1CCC(=NNc2cccc3ccccc23)c2ncc(C(=O)O)c(=O)n21` (centres undefined), in that order: greater than 320 µmol/kg and “Insoluble”.
With `Cc1nc2n(c(=O)c1C(N)=O)C(C)CCC2=NNc1ccccc1` (centres undefined), the ED50 with Rattus norvegicus [1] is greater than 100 µmol/kg. Also, the ID50 entry in the experiment with Rattus norvegicus [2] was “Insoluble”.
Consider `CCc1nc2n(c(=O)c1C(=O)O)C(C)CCC2=NNc1ccccc1` (centres undefined), for which the ED50 in the experiment on Rattus norvegicus [3] is greater than 100 µmol/kg; in the experiment with Rattus norvegicus [1], greater than 320 µmol/kg.
In the case of `CNN=C1CCC(C)n2c1ncc(C(=O)O)c2=O` (centres undefined), the ED50 in the experiment with Rattus norvegicus [3] was 17.5 µmol/kg; with Rattus norvegicus [1], greater than 100 µmol/kg.
